Assay results: patent publication US7244755B2, “Hydroxypropylamines” (Pharmacia & Upjohn Company, priority 2001, dated 2007)

With CCCN(CCC)C(=O)c1cc(C)cc(C(=O)N[C@@H](Cc2cc(F)cc(F)c2)[C@@H](O)CCN)c1 [Example 1, 5-amino-1,2,4,5-tetradeoxy-1-(3,5-difluorophenyl)-2-({3-[(dipropylamino)carbonyl]-5-methylbenzoyl}amino)-L-threo-pentitol] the melting point was 61 to 72 °C.
